Measured values reported in patent publication EP0596112A1, “NOVEL MACROLIDE COMPOUND AND PRODUCTION THEREOF” (YAMANOUCHI PHARMACEUTICAL CO. LTD., priority 1991, dated 1992).
Converted amounts (≈) assume the structure as drawn.

Columns and labels:
[1] = system: Enterococcus faecalis IID682; experiment: In vitro antibacterial activity (MIC), agar plate dilution method using Müller-Hinton medium; assay type: cell-based
Experimental: (§1) In vitro antibacterial activity (MIC) The antibacterial spectrum of the macrolide compound of the present invention was determined by the agar plate dilution method using Müller-Hinton medium which is commonly used for this purpose.

Escherichia coli 0-1 = experiment: as above; assay type: cell-based; details: 01
Experimental: as §1

[2] = system: Klebsiella pneumoniae ATTCC10031; experiment: as above; assay type: cell-based
Experimental: as §1

Proteus vulgalis OX-19 = experiment: as above; assay type: cell-based
Experimental: as §1

[3] = system: Pseudomonas aeruginosa IID5142; experiment: as above; assay type: cell-based
Experimental: as §1

[4] = system: Serratia marcescens IID620; experiment: as above; assay type: cell-based
Experimental: as §1

[5] = system: Staphylococcus aureus FDA 209P; experiment: as above; assay type: cell-based; details: FDA209P
Experimental: as §1

[6] = system: Staphylococcus epidermidis IID866; experiment: as above; assay type: cell-based
Experimental: as §1

[7] = system: Streptococcus pneumoniae IID552; experiment: as above; assay type: cell-based
Experimental: as §1

[8] = system: Streptococcus pyogenes Cook; experiment: as above; assay type: cell-based
Experimental: as §1

[9] = Solubility (physicochemical properties)
[10] = system: Staphylococcus aureus FDA 209P JC-1; experiment: In vitro antibacterial activity (MIC), agar plate dilution method using Müller-Hinton medium; assay type: cell-based; details: FDA209P
Experimental: as §1

[11] = in methanol, ethanol, acetone, ethyl acetate, benzene, toluene and chloroform

| Compound | MIC [1] [µg/mL] | MIC (Escherichia coli 0-1) [µg/mL] | MIC [2] [µg/mL] | MIC (Proteus vulgalis OX-19) [µg/mL] | MIC [3] [µg/mL] | MIC [4] [µg/mL] | MIC [5] [µg/mL] | MIC [6] [µg/mL] | MIC [7] [µg/mL] | MIC [8] [µg/mL] | Solubility [9, 11] | Solubility ([9]; in water and hexane) | MIC [10] [µg/mL] |
| --- | --- | --- | --- | --- | --- | --- | --- | --- | --- | --- | --- | --- | --- |
| COC1C(OCC(C)C2OC(=O)C(C)C(OC3CC(C)(O)C(O)C(C)O3)C(C)C(OC3OC(C)CC(=O)C3O)C(C)CC(C)(O)C(=O)C(C)C(OC(=O)CC(C)C)C2C)OC(C)C(O)C1OC (stereo not drawn) [YL-02107Q substance] | 1.56 (≈ 1.62 µM) | > 100 | > 100 | > 100 | > 100 | > 100 | 0.78 (≈ 0.81 µM) | 0.78 (≈ 0.81 µM) | 3.13 (≈ 3.25 µM) | 0.39 (≈ 0.405 µM) | Soluble | only sparingly soluble | – |
| COC1C(OCC(C)C2OC(=O)C(C)C(OC3CC(O)C(O)C(C)O3)C(C)C(OC3OC(C)CC(=O)C3O)C(C)CC(C)(O)C(=O)C(C)C(OC(=O)CC(C)C)C2C)OC(C)C(O)C1OC (stereo not drawn) [YL-02107Q-B substance] | 25 (≈ 26.3 µM) | > 50 | > 50 | > 50 | > 50 | > 50 | – | 3.13 (≈ 3.3 µM) | 50 (≈ 52.7 µM) | 0.78 (≈ 0.822 µM) | Soluble | only sparingly soluble | 3.13 (≈ 3.3 µM) |
| COC1C(OCC(C)C2OC(=O)C(C)C(OC3CC(C)(O)C(O)C(C)O3)C(C)C(OC3OC(C)CC(=O)C3O)C(C)CC(C)(O)C(=O)C(C)C(O)C2C)OC(C)C(O)C1OC (stereo not drawn) [YL-02107Q-D substance] | > 50 | > 50 | > 50 | > 50 | > 50 | > 50 | – | 1.56 (≈ 1.77 µM) | > 50 | 0.78 (≈ 0.887 µM) | Soluble | only sparingly soluble | 3.13 (≈ 3.56 µM) |
